Assay results as given in patent US9409952B2, “Peptide-compound cyclization method” (Chugai Seiyaku Kabushiki Kaisha, priority 2011, dated 2016).
Like-named read-outs stand apart in the source and are kept apart here. Starred links: 1 amine or outer side, 2 acyl side, 3 side chain; linkers in the order of their positions; H or OH if unused. Positions of bridges follow the written chain, without caps; N, C: chain ends. Non-standard residues stand in square brackets, D forms with d. Residues, ends and D or L forms follow the SMILES beside them. ξ: configuration not given here. *: point of attachment. Phe(4-CF3) = N[C@@H](Cc1ccc(C(F)(F)F)cc1)C(=O)O; NMeF = CN[C@@H](Cc1ccccc1)C(=O)O; NMeI = CC[C@H](C)[C@H](NC)C(=O)O; NMeβAla = CN(CCC(=O)[*:2])[*:1]; Aoc(2) = CCCCCC[C@H](N)C(=O)O; NMeL = CN[C@@H](CC(C)C)C(=O)O; NMeV = CN[C@H](C(=O)O)C(C)C; NMeA = CN[C@@H](C)C(=O)O; Piperidide = C1CCN(*)CC1; dNMeA = CN[C@H](C)C(=O)O; β3hA = C[C@H](N)CC(=O)O; ξD = NC(CC(=O)O)C(=O)O; ξT = CC(O)C(N)C(=O)O; Sar = CNCC(=O)O; tBu = CC(C)(C)*

How the values were obtained:
[1] = PAMPA (parallel artificial membrane permeability assay); type: in vitro ADME; settings: PAMPA
Summary of the method: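 Artificial membrane was 10% (w/v) egg lecithin plus 0.5% (w/v) cholesterol in dodecane on a PVDF filter. A 10 mM DMSO stock was added at 0.5% (v/v) to donor buffer (50 mM MOPSO, pH 6.5, 5.0% glycocholic acid). After 18 h at 37 °C, LC/MS or LC/UV gave donor and acceptor levels for Pe.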

[2] = Metabolic stability in human hepatic microsome; type: in vitro ADME; settings: microsomes
[3] = membrane permeation rate (Pe), 50 mM MOPSO buffer pH 6.5 with 5.0% glycocholic acid, 37° C., 18 hours, read-out: iPAMPA Pe
[4] = pH 7.4, human hepatic microsome, NADPH(+), read-out: CL NADPH(+)

Structure (SMILES)	Papp at 18 hours, 50 µM [1, 3] [×10⁻⁶ cm/s]	microsomal CLint at 1 uM [2, 4] [µL/min/mg]	Papp at 18 hours, 50 µM ([1]; pH 6.5) [×10⁻⁶ cm/s]	microsomal CLint at 1 uM ([2]; human, pH 7.4, CL NADPH(+)) [µL/min/mg]
CC(C)C[C@H]1C(=O)N(C)[C@@H](Cc2ccccc2)C(=O)N[C@@H]([C@@H](C)O)C(=O)N(C)[C@@H](C)C(=O)N[C@@H](C)C(=O)N(C)[C@@H](Cc2ccccc2)C(=O)N[C@@H](C)C(=O)N(C)[C@@H](C(C)C)C(=O)N(C)[C@@H](C)C(=O)N[C@H](C(=O)N(C)[C@@H](Cc2ccccc2)C(=O)N[C@@H](C)C(=O)N2CCCCC2)CC(=O)N(C)[C@H](C)C(=O)N1C [DP-348] ([dNMeA][NMeL][NMeF]T[NMeA]A[NMeF]A[NMeV][NMeA]D[NMeF]A-Piperidide; lactam N-11)	19	17	–	–
CC[C@H](C)[C@@H]1NC(=O)[C@H](Cc2ccccc2)NC(=O)[C@H](C(C)C)N(C)C(=O)CN(C)C(=O)C[C@@H](C(=O)N2CCCCC2)NC(=O)[C@H]([C@@H](C)O)NC(=O)[C@H](CC(C)C)N(C)C(=O)[C@H](Cc2ccccc2)NC(=O)[C@H](CC(C)C)N(C)C(=O)CNC(=O)[C@H](CC(C)C)NC(=O)[C@H](C)N(C)C1=O [DP-137] ([Sar][NMeV]FI[NMeA]LG[NMeL]F[NMeL]TD-Piperidide; lactam N-12)	32	86	–	–
CC(C)C[C@H]1C(=O)N(C)[C@@H](Cc2ccccc2)C(=O)NCC(=O)N[C@H](C(=O)N2CCCCC2)CC(=O)N(C)CCC(=O)N[C@@H]([C@@H](C)O)C(=O)N(C)[C@@H](C)C(=O)N[C@@H](COC(C)(C)C)C(=O)N(C)[C@@H](Cc2ccccc2)C(=O)N1C [DP-80] ([NMeβAla]T[NMeA]S(tBu)[NMeF][NMeL][NMeF]GD-Piperidide; lactam N-9)	–	–	12	43
CC(C)C[C@@H]1NC(=O)[C@H](Cc2ccccc2)N(C)C(=O)[C@H]([C@@H](C)O)NC(=O)[C@H](Cc2ccccc2)N(C)C(=O)[C@H](C)N(C)C(=O)[C@H](C)NC(=O)C[C@@H](C(=O)N2CCCCC2)NC(=O)[C@@H]2CCCN2C1=O [DP-530] (A[NMeA][NMeF]T[NMeF]LPD-Piperidide; lactam N-8)	–	–	11	37
CC(C)C[C@@H]1NC(=O)[C@H](C(C)C)NC(=O)[C@H](Cc2ccccc2)NC(=O)CCN(C)C(=O)C[C@@H](C(=O)N2CCCCC2)NC(=O)[C@H](CC(C)C)N(C)C(=O)[C@H](CC(C)C)NC(=O)[C@H](C(C)C)N(C)C(=O)[C@H](CC(C)C)NC(=O)[C@H]([C@@H](C)O)NC(=O)CN(C)C1=O [DP-472] ([NMeβAla]FVL[Sar]TL[NMeV]L[NMeL]D-Piperidide; lactam N-11)	24	52	–	–
CC[C@H](C)[C@@H]1NC(=O)[C@H](CC(C)C)N(C)C(=O)[C@H](C)NC(=O)CN(C)C(=O)[C@H](Cc2ccc(C(F)(F)F)cc2)NC(=O)[C@H]([C@@H](C)O)NC(=O)[C@H](CC(C)C)N(C)C(=O)CCN(C)C(=O)C[C@H](C)NC(=O)[C@H](CC(C)C)N(C)C(=O)[C@H](CC(C)C)N(C)C1=O [DP-805] (cyclo(A[NMeL]I[NMeL][NMeL][β3hA][NMeβAla][NMeL]T[Phe(4-CF3)][Sar]))	41	169	–	–
CC(C)C[C@@H]1NC(=O)[C@H](Cc2ccccc2)N(C)C(=O)CCN(C)C(=O)C[C@@H](C(=O)N2CCCCC2)NC(=O)[C@H](CC(C)C)N(C)C(=O)[C@H](C)N(C)C(=O)[C@H]([C@@H](C)O)NC(=O)[C@H](CC(C)C)N(C)C(=O)[C@H](Cc2ccccc2)N(C)C1=O [DP-268] ([NMeβAla][NMeF]L[NMeF][NMeL]T[NMeA][NMeL]D-Piperidide; lactam N-9)	50	508	–	–
CC(C)C[C@@H]1NC(=O)[C@H](Cc2ccccc2)N(C)C(=O)[C@H](C(C)C)N(C)C(=O)CN(C)C(=O)[C@H]([C@@H](C)O)NC(=O)[C@H](Cc2ccccc2)N(C)C(=O)[C@H](CC(C)C)N(C)C(=O)[C@H](CC(C)C)N(C)C(=O)[C@H](C)NC(=O)[C@@H](C(C)C)NC(=O)C[C@@H](C(=O)N(C)[C@@H](Cc2ccccc2)C(=O)N[C@@H](C)C(=O)N2CCCCC2)NC1=O [DP-484] ([dV]A[NMeL][NMeL][NMeF]T[Sar][NMeV][NMeF]LD[NMeF]A-Piperidide; lactam N-11)	13	29	–	–
CC[C@H](C)[C@@H]1NC(=O)[C@H](C)NC(=O)C[C@@H](C(=O)N(C)[C@@H](CC(C)C)C(=O)N(C)[C@@H](C)C(=O)N(C)[C@@H](Cc2ccccc2)C(=O)N[C@@H](C)C(=O)N2CCCCC2)NC(=O)[C@@H]2CCCN2C(=O)[C@H](CC(C)C)NC(=O)[C@H](Cc2ccccc2)N(C)C(=O)[C@H]([C@@H](C)O)NC(=O)[C@H](Cc2ccccc2)N(C)C(=O)[C@H](C)N(C)C1=O [DP-667] (AI[NMeA][NMeF]T[NMeF]LPD[NMeL][NMeA][NMeF]A-Piperidide; lactam N-9)	19	39	–	–
CC[C@H](C)[C@@H]1NC(=O)[C@H](Cc2ccccc2)N(C)C(=O)[C@H](CC(C)C)NC(=O)[C@H](CC(C)C)NC(=O)[C@H](Cc2ccccc2)NC(=O)[C@H](CC(C)C)NC(=O)[C@@H](C)NC(=O)C[C@@H](C(=O)N(C)[C@@H](C)C(=O)N[C@@H](CC(C)C)C(=O)N[C@@H](C)C(=O)N[C@H](C(=O)N2CCCCC2)[C@@H](C)CC)NC(=O)[C@H](Cc2ccccc2)NC(=O)[C@H]([C@@H](C)O)NC1=O [DP-580] ([dA]LFLL[NMeF]ITFD[NMeA]LAI-Piperidide; lactam N-10)	0.13	54	–	–
CC(C)C[C@H]1C(=O)N(C)[C@@H](CC(C)C)C(=O)NC(C(C)O)C(=O)N(C)[C@@H](Cc2ccccc2)C(=O)NCC(=O)N(C)[C@@H](C(C)C)C(=O)N[C@@H](Cc2ccccc2)C(=O)NC(C(=O)N2CCCCC2)CC(=O)N(C)CCC(=O)N[C@@H](COC(C)(C)C)C(=O)N1C (stereo partly shown) [DP-50] ([NMeβAla]S(tBu)[NMeL][NMeL][ξT][NMeF]G[NMeV]F[ξD]-Piperidide; lactam N-10)	–	–	35	80
CC(C)C[C@@H]1NC(=O)[C@H](Cc2ccccc2)N(C)C(=O)[C@H](C)N(C)C(=O)C[C@H](C)NC(=O)[C@H]([C@@H](C)O)NC(=O)[C@H](CC(C)C)N(C)C(=O)[C@H](Cc2ccccc2)NC(=O)[C@H](CC(C)C)N(C)C(=O)[C@H](CC(C)C)N(C)C1=O [DP-791] (cyclo(F[NMeL]T[β3hA][NMeA][NMeF]L[NMeL][NMeL]))	41	794	–	–
CCCCCC[C@@H]1NC(=O)[C@H](Cc2ccccc2)N(C)C(=O)[C@H](C)N(C)C(=O)C[C@H](C)NC(=O)[C@H](C(C)C)N(C)C(=O)[C@H](COC(C)(C)C)NC(=O)[C@H](C)N(C)C(=O)CN(C)C(=O)[C@H]([C@@H](C)O)NC(=O)[C@H](CC(C)C)N(C)C1=O [DP-822] (cyclo([Aoc(2)][NMeL]T[Sar][NMeA]S(tBu)[NMeV][β3hA][NMeA][NMeF]))	37	518	–	–
CC[C@H](C)[C@H]1C(=O)N(C)[C@@H](C)C(=O)N(C)[C@@H](CC(C)C)C(=O)N[C@@H](COC(C)(C)C)C(=O)N(C)[C@@H](CC(C)C)C(=O)N[C@@H](C)CC(=O)N(C)[C@@H](C)C(=O)N(C)[C@@H](Cc2ccccc2)C(=O)N[C@@H](CC(C)C)C(=O)N(C)[C@@H](CC(C)C)C(=O)N[C@@H]([C@@H](C)O)C(=O)N[C@@H](Cc2ccccc2)C(=O)N1C [DP-761] (cyclo(F[NMeI][NMeA][NMeL]S(tBu)[NMeL][β3hA][NMeA][NMeF]L[NMeL]T))	–	–	9.2	118
